The record followed here is patent US10583127B2, “Amine salt of (1R, 3S)-3-(5-cyano-4-phenyl-1,3- thiazol-2-ylcarbamoyl)cyclopentane carboxylic acid” (PALOBIOFARMA, S.L., priority 2017, dated 2020).

Entries after “also recorded” stand apart in the source; their conditions may differ. Where two headings read alike, the source gives them in different places.

Data set [1] in a line: Hygroscopicity study by Dynamic Vapour Sorption (DVS) profiles. Type of data set: physicochemical. To be noted: for moisture content at 25% RH / moisture content at 55% RH / moisture content at 75% RH (variation in the moisture content): DVS sorption isotherm at 25° C. The method, then: Hygroscopicity studies of salts were carried out by preparation of Dynamic Vapour Sorption (DVS) profiles, with a TA instrument Q5000 apparatus. After an initial stabilization period (samples are pre-dried at 60° C. under vacuum), isotherms (at 25° C.) were obtained for each sample: a moisture sorption from 0 to 95% relative humidity (RH) and moisture desorption from 95% RH to dryness. Both isotherms were performed in 5% and 10% humidity steps.
The relative humidity (RH) was controlled by a mixture of wet and dry nitrogen stream. The RH was held constant until the equilibrium had been obtained (constant weight) or until the maximum time has been reached, before changing the RH to the next level.

Data set [2] in a line: Stability study under forced conditions (one week at 40° C. and 70% RH, XRPD check). Type of data set: physicochemical. The method, then:
Stability studies under forced conditions were carried out by keeping the product under study for one week at 40° C. and 70% RH. Salts were analyzed by XRPD to check any change in the crystalline form.

The nature of data set [3]: Solubility screen assay (nephelometry). To be noted: 37° C.
Protocol: (§1) Solubility screen assays were carried out as following: stock solutions (10^−2M) of the assayed compounds were diluted to decreased molarity from 500 μM to 0.256 nM, in 384 well transparent plate (Greiner 781101) with 5% DMSO: 95% PBS buffer. Samples were incubated at 37° C. and read after 2 and 4 hours in a NEPHELOstar Plus (BMGLABTECH).
The nature of data set [4]: Oral bioavailability assay: plasma pharmacokinetics after single IV and PO administration. To be noted: male SD rats.
Protocol: (§2) Animals were divided into two groups: Group 1 (IV: 1 mg/kg) and Group 2 (PO: 5 mg/kg). […] The blood samples were collected from set of three rats at each time point in labeled micro centrifuge tube containing K2EDTA solution as anticoagulant at Pre-dose, 0.083, 0.25, 0.5, 1, 2, 4, 8 and 24 hr (IV) and Pre-dose, 0.25, 0.5, 1, 2, 4, 6, 8 and 24 hr (PO). Plasma samples were separated by centrifugation of whole blood and stored below −70±10° C. until bioanalysis. All samples were processed for analysis by protein precipitation using acetonitrile and analyzed with fit-for-purpose LC-MS/MS method (LLOQ=1.00 ng/ml). Pharmacokinetic parameters were calculated using the non-compartmental analysis tool of Phoenix WinNonlin® (Version 6.3).
(§3) AUC last refers to the area under the curve from the time of dosing to the time of last observation that is greater than the limit of quantitation.
(§4) Clearance refers to the measurement of the ability of the body to remove drug from the plasma, and is calculated from the intravenous dosing.
(§5) F % refers to the bioavailability. The systemic availability of a compound after oral administration is calculated using the following equation: F(%)=(AUClast PO×Dose IV/AUClast IV×Dose PO)×100
The nature of a further data set: in vivo. To be noted: male, SD, rat.
The nature of the next data set: physchem. To be noted: 37 °C, aqueous with cosolvent or surfactant or cyclodextrin, kinetic from dmso stock.
Where [5] appears, read: DVS, usual drug storage conditions (<75% RH).
Where [6] appears, read: listed as (1R-3S)-3-(5-cyano-4-phenyl-1,3-thiazol-2-ylcarbamoyl)cyclopentane carboxylic ac.

Protocol for in vivo: as §2, §3, §4, §5
Protocol for physchem: as §1

As for `N#Cc1sc(NC(=O)[C@H]2CC[C@@H](C(=O)O)C2)nc1-c1ccccc1` [(1R,3S)-3-(5-cyano-4-phenyl-1,3-thiazol-2-ylcarbamoyl)cyclop] [(1R,3S)-3-(5-cyano-4-phenyl-1,3-thiazol-2-ylcarbamoyl)cyclopentane carboxylic acid], in data set [1], the “moisture content at 25% RH” value is given as 0.1283%, the “moisture content at 55% RH” value worked out at 0.3008% and the “moisture content at 75% RH (variation in the moisture content)” value (shortened to “moisture content at 75% RH”) is reported as 0.4369%. The “moisture content at 75% RH” value in data set [1] (listed as free acid) was 0.43%. The “hygroscopicity (result in words)” value in data set [1] (setting [5]) is listed as “exhibits certain levels of hygroscopicity”.
Turning to “Magnesium (1R,3S)-3-((5-cyano-4-phenylthiazol-2-yl)carbamoyl)cyclopentane-1-carboxylate”, in data set [1], the “hygroscopicity (result in words)” value was “very hygroscopic”, the “moisture content at 25% RH” value came to 4.929%, the “moisture content at 55% RH” value is on record as 11.27% and the “moisture content at 75% RH” value is listed as 18.11%. Besides, the “moisture content at 75% RH” value in data set [1] (listed as magnesium salt) is listed as 18%.
For the molecule `N#Cc1sc(NC(=O)[C@H]2CC[C@@H](C(=O)O)C2)nc1-c1ccccc1` [(1R,3S)-3-(5-cyano-4-phenyl-1,3-thiazol-2-ylcarbamoyl)cyclop] [1,3-dihydroxy-2-(hydroxymethyl)propan-2-aminium (1R,3S)-3-((5-cyano-4-phenylthiazol-2-yl)carbamoyl)cyclopentane-1-carboxylate], in data set [1] (setting [6]), the “moisture content at 25% RH” value is 0.0722%, the “moisture content at 55% RH” value was found to be 0.1165% and the “moisture content at 75% RH” value was 0.2096%. In addition, the “moisture content at 75% RH” value in data set [1] (listed as tromethamine salt) was 0.17%. In addition, the “hygroscopicity (result in words)” value in data set [1] (setting [5]) is “less hygroscopic than the free acid form”. Moreover, in data set [1] (DVS, usual drug storage conditions (<75% RH), listed as tromethamine salt), the “hygroscopicity (result in words)” value is “less hygroscopic than free acid”. The “stability under forced conditions (result in words)” value (“stability under forced conditions” for short) in data set [2] is reported as “no cristallinity changes, colour or any other change in the aspect were observed; also recorded: stable solid, even under forced stability conditions”. Further, in data set [3], the “solubility compared with other salts and free acid” value is on record as “higher solubility compared to others salts”. Moreover, the AUC last in data set [4] (iv 1 mg/Kg, plasma, 1 mg/kg) was 2373.87 ng·h/mL. The molecule further had a clearance in data set [4] (iv 1 mg/Kg, 1 mg/kg) of 7.11 mL/min/kg.
As for `CCNCC.N#Cc1sc(NC(=O)[C@H]2CC[C@@H](C(=O)O)C2)nc1-c1ccccc1` [Diethylammonium (1R,3S)-3-((5-cyano-4-phenylthiazol-2-yl)carbamoyl)cyclopentane-1-carboxylate], the “stability under forced conditions” value in data set [2] is on record as “showed some degradation”. This molecule registered a clearance in data set [4] (iv 1 mg/Kg) of 5.02 mL/min/kg. Moreover, the AUC last in data set [4] (iv 1 mg/Kg, plasma) turned out to be 3383.00 ng·h/mL; in data set [4] (po 5 mg/Kg, plasma), 11580.30 ng·h/mL. Moreover, the “F % (bioavailability)” value in data set [4] (po 5 mg/Kg vs iv 1 mg/Kg, from AUClast) is listed as 68%. The same molecule showed a Cmax in data set [4] (po 5 mg/Kg, solution in normal saline, plasma) of 5906.53 ng/mL.
As for `N#Cc1sc(NC(=O)[C@H]2CC[C@@H](C(=O)[O-])C2)nc1-c1ccccc1.[Na+]` [Sodium (1R,3S)-3-((5-cyano-4-phenylthiazol-2-yl)carbamoyl)cyclopentane-1-carboxylate], the “hygroscopicity (result in words)” value in data set [1] (setting [5]) is “showed evident hygroscopicity”. Moreover, in data set [2], the “stability under forced conditions” value is listed as “did not have good stability, changed color”. In the data set “in vivo” (iv, 1 mg/kg), this molecule displayed an AUC(0-t) of 5090 ng·h/mL and a clearance of 3.31 mL/min/kg. In the data set “in vivo” (po, 5 mg/kg), this molecule came in with an AUC(0-t) of 21600 ng·h/mL, a Cmax of 13200 ng/mL and a bioavailability of 85%. The same molecule returned a solubility in the data set “physchem” of 36.3 µM.
As to `N#Cc1sc(NC(=O)[C@H]2CC[C@@H](C(=O)O)C2)nc1-c1ccccc1` [(1R,3S)-3-(5-cyano-4-phenyl-1,3-thiazol-2-ylcarbamoyl)cyclopentane carboxylic acid], in data set [4] (male, SD, rat, plasma, iv, 1 mg/kg, AUC last, iv 1 mg/Kg), the AUC(0-t) is 2200 ng·h/mL. The clearance in data set [4] (male, SD, rat, plasma, iv, 1 mg/kg, Clearance, iv 1 mg/Kg) came to 6.3 mL/min/kg.

In general, Cmax refers to the maximum level reached in the sampled fluid or tissue. The AUC(0-t) is exposure summed from dosing to a finite time, without extrapolation to infinity. High values mean more exposure, low ones less exposure. What is called bioavailability is the share of a dose that reaches the circulation, judged against a reference dose that is usually intravenous. A low value points to poor availability. One may read the solubility as the concentration that dissolves in the medium under given conditions. High values mean much dissolved substance, low ones little dissolved substance.
